Each structure is given as a SMILES string. “And” between values parts separate entries of the source, which are not always exact repeats. Identical values can stand only once. The source made the active and inactive calls. The rule behind the calls is not given here.

We go through 90 compounds from PubChem BioAssay AID732 (Emory University Molecular Libraries Screening Center, 2007).

For this test, the system named is in vivo angiogenesis, blood vessel count. Put plainly: angiogenesis inhibition in living animals, in vivo study, HTS (AID 732).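 Note: zebrafish embryos dosed at one day post fertilization; 0% = reference inhibitor and 100% = plate mean.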 To be noted: active compounds read low;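 tested at 30 µM in the well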.
Consider `CC1CN(S(=O)(=O)c2cccc3cnccc23)CCN1` (stereo not given), for which the vessel count % control is 97.8% (inactive).

With `O=C1C2C=CC=CC2=NC(=S)N1CCN1CCC(=C(c2ccc(F)cc2)c2ccc(F)cc2)CC1` (stereo not given), the vessel count % control was 78.2% (inactive).

For `CC(=O)SC1CC2=CC(=O)CC[C@]2(C)C2CC[C@@]3(C)C(CC[C@@]34CCC(=O)O4)C12` (stereo not given in full), the vessel count % control is 85.3% (inactive).

Turning to `C(=C\c1ccccc1)/CN1CCN(C(c2ccccc2)c2ccccc2)CC1`, the vessel count % control is 88.9% (inactive).

On to `C[C@@H]1O[C@@H](O[C@H]2C[C@@H](O)[C@]3(CO)[C@H]4[C@H](O)C[C@]5(C)[C@@H](C6=CC(=O)OC6)CC[C@]5(O)[C@@H]4CC[C@]3(O)C2)[C@H](O)[C@H](O)[C@H]1O`, for which the vessel count % control was 109% (inactive).

As to `O=C(O)CCC(NC(=O)c1ccccc1C(=O)O)C(=O)O` (stereo not given), the vessel count % control is 103% (inactive).

`COc1ccccc1OCC(O)CN1CCN(CC(=O)Nc2c(C)cccc2C)CC1` (stereo not given): the vessel count % control was 97.9% (inactive).

Regarding `COC(=O)[C@@H](N)Cc1ccc(O)c(O)c1`, the vessel count % control is 99.1% (inactive).

Regarding `CN1CCN(C2=Nc3ccccc3Oc3ccc(Cl)cc32)CC1`, the vessel count % control was 123% (inactive).

Regarding `Nc1ccc2c3c(cccc13)C(=O)NC2=O`, the vessel count % control was 0% (inactive).

As to `NCCc1ccc(S(=O)(=O)F)cc1`, the vessel count % control is 87.5% (inactive).

As for `CCSC(=N)N`, the vessel count % control was 62.2% (inactive).

`Nc1ncnc2c1ncn2C1CCCC1`: the vessel count % control was 81.5% (inactive).

In the case of `OCc1cc(C(O)CNCCCCCCOCCCCc2ccccc2)ccc1O` (stereo not given), the vessel count % control is 126% (inactive).

As for `OCc1ccc(-c2nn(Cc3ccccc3)c3ccccc23)o1`, the vessel count % control is 78.2% (inactive).

In the case of `COc1c2c(nc3ccccc13)OC(C(C)(O)CO)C2` (stereo not given), the vessel count % control is 120% (inactive).

As to `COc1ccccc1N1CCN(CCCNc2cc(=O)n(C)c(=O)n2C)CC1`, the vessel count % control was 111% (inactive).

As to `NC(=O)c1ncn([C@@H]2O[C@H](CO)[C@@H](O)[C@H]2O)c1O`, the vessel count % control is 94.8% (inactive).

Turning to `NCc1cc(=O)[nH]o1`, the vessel count % control was 110% (inactive).

Take `Cc1cccc(/C=C/c2ccccc2)n1`: the vessel count % control is 74.2% (inactive).

In the case of `CCCNCC(O)COc1ccccc1C(=O)CCc1ccccc1` (stereo not given), the vessel count % control was 102% (inactive).

In the case of `N#C/C(=C\c1ccc(O)c(O)c1)C(=O)NCCCc1ccccc1`, the vessel count % control is 137% (inactive).

Regarding `CC(N)=NCCC[C@H](N)C(=O)O`, the vessel count % control was 134% (inactive).

Take `CN1CCN(C2=Nc3cc(Cl)ccc3Nc3ccccc32)CC1`: the vessel count % control is 98.7% (inactive).

For the compound `COC(=O)C1=C(C)NC(C)=C(C(=O)OCCN(C)Cc2ccccc2)C1c1cccc([N+](=O)[O-])c1` (stereo not given), the vessel count % control was 65.5% (inactive).

`C[C@]12CCC(=O)C=C1CC[C@@H]1[C@@H]2CC[C@]2(C)C(=O)CC[C@@H]12`: the vessel count % control is 102% (inactive).

On to `NC(N)=Nc1ccc2[nH]c3c(c2c1)C[C@@]1(O)[C@H]2Cc4ccc(O)c5c4[C@@]1(CCN2CC1CC1)[C@H]3O5`, for which the vessel count % control is 101% (inactive).

For `CCN1CCC[C@H]1CNC(=O)c1c(O)c(Cl)cc(Cl)c1OC`, the vessel count % control was 103% (inactive).

Take `CCOC(=O)c1ncn2c1CN(C)C(=O)c1cc(F)ccc1-2`: the vessel count % control was 98.9% (inactive).

Regarding `COc1ccc(C(=O)N2CCCC2=O)cc1`, the vessel count % control was 116% (inactive).

On to `COc1ccccc1NC(=O)Nc1nc(-c2cccnc2)nc2ccccc12`, for which the vessel count % control was 85.6% (inactive).

As to `Nc1nc(OCc2ccccc2)c2[nH]cnc2n1`, the vessel count % control was 91% (inactive).

On to `CN(C)CCCC1(c2ccc(F)cc2)OCc2cc(C#N)ccc21` (stereo not given), for which the vessel count % control was 99.8% (inactive).

Consider `C=CC[C@H](N)C(=O)O`, for which the vessel count % control was 111% (inactive).

Consider `CC12C(=O)OC(=O)C1(C)C1CCC2O1` (stereo not given), for which the vessel count % control was 0% (inactive).

As to `NCC(O)c1cc(O)c(O)cc1F` (stereo not given), the vessel count % control is 87.4% (inactive).

In the case of `CCN(CC)C(=O)c1ccc(O)c(OC)c1`, the vessel count % control is 96.8% (inactive).

Turning to `N[C@@H]1CONC1=O`, the vessel count % control is 90.5% (inactive).

Turning to `Nc1c2c(nc3ccccc13)CCCC2O` (stereo not given), the vessel count % control was 86.4% (inactive).

Take `Oc1ccc(C2CNCc3sccc32)cc1O` (stereo not given): the vessel count % control was 94.7% (inactive).

`COC(=O)C1=C(C)NC(C)=C([N+](=O)[O-])C1c1ccccc1C(F)(F)F` (stereo not given): the vessel count % control was 92.2% (inactive).

Consider `Cn1ccnc1`, for which the vessel count % control is 109% (inactive).

As for `O=C(O)C1CN(CCCP(=O)(O)O)CCN1` (stereo not given), the vessel count % control is 119% (inactive).

For the compound `CNC(=O)Oc1ccc2c(c1)[C@]1(C)CCN(C)[C@@H]1N2C`, the vessel count % control was 120% (inactive).

For the compound `NC1(C(=O)O)CCCCC1`, the vessel count % control was 110% (inactive).

`O=C(O)/C(=C/c1c(C(=O)O)[nH]c2cc(Cl)cc(Cl)c12)c1ccccc1`: the vessel count % control was 108% (inactive).

As for `CN1C2CC(OC(=O)[C@H](CO)c3ccccc3)CC1C1OC12` (stereo not given in full), the vessel count % control is 79.7% (inactive).

For the compound `C[Se]C[C@H](N)C(=O)O`, the vessel count % control was 103% (inactive).

In the case of `Cc1c(OCC(F)(F)F)ccnc1CS(=O)c1nc2ccccc2[nH]1` (stereo not given), the vessel count % control was 76.7% (inactive).

As to `O=[N+]([O-])c1cc(O)c(O)c([N+](=O)[O-])c1`, the vessel count % control is 89.3% (inactive).

Consider `CC1=C(CC(=O)O)c2cc(F)ccc2/C1=C\c1ccc(S(C)=O)cc1` (stereo not given), for which the vessel count % control is 89.8% (inactive).

Take `N#C/C(=C\c1c[nH]c2ccccc12)C(=O)c1ccc(O)c(O)c1`: the vessel count % control is 102% (inactive).

For `Cc1ccc(Cl)c(Nc2ccccc2C(=O)O)c1Cl`, the vessel count % control is 90.3% (inactive).

Take `CCCC(=O)NCCc1c2n(c3ccc(OC)cc13)Cc1ccccc1-2`: the vessel count % control was 111% (inactive).

Consider `C[N+]1(C)C2CCC1CC(OC(=O)C(CO)c1ccccc1)C2` (stereo not given), for which the vessel count % control was 77.4% (inactive) and 108% (inactive).

For the compound `CCCN1CCC[C@@H](c2cccc(C#N)c2)C1`, the vessel count % control was 103% (inactive).

Turning to `Cn1cc(C(=O)OCC2CCN(CCNS(C)(=O)=O)CC2)c2ccccc21`, the vessel count % control was 106% (inactive).

On to `CNCCC(Oc1ccccc1C)c1ccccc1` (stereo not given), for which the vessel count % control was 122% (inactive).

On to `CN(C)C(=O)/N=N/C(=O)N(C)C`, for which the vessel count % control was 110% (inactive).

Take `C[C@]12CC[C@H](O)CC1=CC[C@@H]1[C@@H]2CC[C@]2(C)C(=O)CC[C@@H]12`: the vessel count % control is 106% (inactive).

With `NC(=O)c1cc[n+](CC2=C(C(=O)O)N3C(=O)[C@@H](NC(=O)[C@@H](c4ccccc4)S(=O)(=O)[O-])[C@H]3SC2)cc1`, the vessel count % control was 99.9% (inactive).

Take `OCCN1CCN(CCCN2c3ccccc3Sc3ccc(C(F)(F)F)cc32)CC1`: the vessel count % control was 116% (inactive).

Consider `N[C@@H](Cc1ccc(O)c(I)c1)C(=O)O`, for which the vessel count % control is 108% (inactive).

Take `CC(C)Cn1c(=O)n(C)c(=O)c2[nH]cnc21`: the vessel count % control was 78.7% (inactive).

Take `O=c1c(-c2ccc(O)cc2)coc2cc(O)cc(O)c12`: the vessel count % control was 107% (inactive).

`O=C(O)c1cc2cc(F)ccc2[nH]1`: the vessel count % control is 104% (inactive).

Turning to `NC(CCCP(=O)(O)O)C(=O)O` (stereo not given), the vessel count % control was 75.8% (inactive).

For `CC(C)c1ccc2c(c1)c(SC(C)(C)C)c(CC(C)(C)C(=O)O)n2Cc1ccc(Cl)cc1`, the vessel count % control is 99.4% (inactive).

Take `O=c1onc2n1-c1cc(Br)ccc1OC2`: the vessel count % control was 95.9% (inactive).

`COc1ccc(CN(CCN(C)C)c2ccccn2)cc1`: the vessel count % control was 106% (inactive).

With `Oc1ccc(C2CNCCc3c2cc(O)c(O)c3Cl)cc1` (stereo not given), the vessel count % control is 117% (inactive).

Consider `C=C1C(=O)O[C@@H]2[C@H]3O[C@]3(C)CCC=C(C)CC[C@@H]12`, for which the vessel count % control was 92.5% (inactive).

Turning to `N[C@@]1(C(=O)O)CC[C@@H](C(=O)O)C1`, the vessel count % control is 102% (inactive).

Regarding `N[C@@H](Cc1c[nH]c2ccc(O)cc12)C(=O)O`, the vessel count % control is 81.8% (inactive).

As for `N[C@H](CCCCCP(=O)(O)O)C(=O)O`, the vessel count % control was 84.2% (inactive).

On to `O=C1CCc2cc(OCCCCc3nnnn3C3CCCCC3)ccc2N1`, for which the vessel count % control is 124% (inactive).

With `O=S(=O)(NCCNC/C=C/c1ccc(Br)cc1)c1cccc2cnccc12`, the vessel count % control is 90.3% (inactive).

Consider `CCCN(CCC)CCc1cccc2c1CC(=O)N2`, for which the vessel count % control is 96.5% (inactive).

Regarding `CCCc1c(-c2ccc(O)cc2)nn(-c2ccc(O)cc2)c1-c1ccc(O)cc1`, the vessel count % control is 106% (inactive).

On to `CC(=O)OC(C)C[N+](C)(C)C` (stereo not given), for which the vessel count % control was 85.5% (inactive).

For the compound `CNCCc1ccc(O)c(O)c1`, the vessel count % control is 96.5% (inactive).

As for `NC(=O)COc1c(F)cc(SCCNS(=O)(=O)c2ccccc2)cc1F`, the vessel count % control was 116% (inactive).

Take `CN1C(=O)CC[C@H]1c1cccnc1`: the vessel count % control is 110% (inactive).

Regarding `c1ccc2nc(N3CCNCC3)ccc2c1`, the vessel count % control was 98% (inactive).

On to `CCCNC(=O)NS(=O)(=O)c1ccc(Cl)cc1`, for which the vessel count % control is 124% (inactive).

With `CCCC[N+]1(C)C2CC(OC(=O)[C@H](CO)c3ccccc3)CC1C1OC12` (stereo not given in full), the vessel count % control is 107% (inactive).

For `Cc1[nH]c2ccc(O)cc2c1CCN`, the vessel count % control is 87% (inactive).

For `CN1CC[C@@]2(C)c3cc(O)ccc3N(C)C12` (stereo not given in full), the vessel count % control is 95.1% (inactive).

Turning to `C[N+]1(CCCCC[N+]2(C)CCCC2)CCCC1`, the vessel count % control was 114% (inactive).

Consider `Nc1nc(Cl)nc2c1ncn2[C@@H]1O[C@H](CO)[C@H](O)C1O` (stereo not given in full), for which the vessel count % control is 107% (inactive).
